From article PMC8952208, “Synthesis, Antiplasmodial, and Antileukemia Activity of Dihydroartemisinin–HDAC Inhibitor Hybrids as Multitarget Drugs” (Pharmaceuticals, 2022)

Legend:
A2780 cells = assay: MTT cell viability assay; type: cell-based; details: Homo sapiens, 72 h, n ≥ 3 in triplicate, mean ± SD
Experimental: Reagents were obtained from PAN Biotech, Aidenbach Germany. The cell line was cultured at 37 °C under humidified air with 5% CO2 to a confluence of 80–90% before being used for further assays.
Intrinsic cytotoxicity of test compounds was determined by an MTT assay as previously described. A2780 cells were seeded in 96-well plates (Starlab GmbH, Hamburg, Germany) at a density of 20,000 cells/well and allowed to attach for 12 h. Cells were then treated with increasing concentrations of the test compounds. After 72 h, MTT (3-(4,5-dimethylthiazol-2-yl)-2,5-diphenyltetrazolium bromide) (BioChemica, Applichem GmbH, Darmstadt, Germany) solution (5 mg/mL in phosphate-buffered saline) was added to determine cell survival. The formazan dye was dissolved in DMSO (Sigma-Aldrich, Darmstadt, Germany) after 1 h. Absorbance was measured at 570 nm and 690 nm in a Multiskan microplate photometer (Thermo Fisher Scientific, Waltham, MA, USA). Concentration-response curves were generated using the four-parameter logistic equation (GraphPad Prism 9.0, San Diego, USA), and mean IC50 values were calculated in triplicates based on at least three different experiments.

human HDAC6 (hHDAC6) = target: T1, human HDAC6 (hHDAC6) (Homo sapiens, UniProt Q9UBN7); assay: In vitro human HDAC6 assay (ZMAL substrate); type: biochemical; details: for SI 1/6: Selectivity Index = (hHDAC1 IC50)/(hHDAC6 IC50)
T1 construct: purchased BPS Bioscience Inc. 50006
T1 sequence (Q9UBN7 1-1215): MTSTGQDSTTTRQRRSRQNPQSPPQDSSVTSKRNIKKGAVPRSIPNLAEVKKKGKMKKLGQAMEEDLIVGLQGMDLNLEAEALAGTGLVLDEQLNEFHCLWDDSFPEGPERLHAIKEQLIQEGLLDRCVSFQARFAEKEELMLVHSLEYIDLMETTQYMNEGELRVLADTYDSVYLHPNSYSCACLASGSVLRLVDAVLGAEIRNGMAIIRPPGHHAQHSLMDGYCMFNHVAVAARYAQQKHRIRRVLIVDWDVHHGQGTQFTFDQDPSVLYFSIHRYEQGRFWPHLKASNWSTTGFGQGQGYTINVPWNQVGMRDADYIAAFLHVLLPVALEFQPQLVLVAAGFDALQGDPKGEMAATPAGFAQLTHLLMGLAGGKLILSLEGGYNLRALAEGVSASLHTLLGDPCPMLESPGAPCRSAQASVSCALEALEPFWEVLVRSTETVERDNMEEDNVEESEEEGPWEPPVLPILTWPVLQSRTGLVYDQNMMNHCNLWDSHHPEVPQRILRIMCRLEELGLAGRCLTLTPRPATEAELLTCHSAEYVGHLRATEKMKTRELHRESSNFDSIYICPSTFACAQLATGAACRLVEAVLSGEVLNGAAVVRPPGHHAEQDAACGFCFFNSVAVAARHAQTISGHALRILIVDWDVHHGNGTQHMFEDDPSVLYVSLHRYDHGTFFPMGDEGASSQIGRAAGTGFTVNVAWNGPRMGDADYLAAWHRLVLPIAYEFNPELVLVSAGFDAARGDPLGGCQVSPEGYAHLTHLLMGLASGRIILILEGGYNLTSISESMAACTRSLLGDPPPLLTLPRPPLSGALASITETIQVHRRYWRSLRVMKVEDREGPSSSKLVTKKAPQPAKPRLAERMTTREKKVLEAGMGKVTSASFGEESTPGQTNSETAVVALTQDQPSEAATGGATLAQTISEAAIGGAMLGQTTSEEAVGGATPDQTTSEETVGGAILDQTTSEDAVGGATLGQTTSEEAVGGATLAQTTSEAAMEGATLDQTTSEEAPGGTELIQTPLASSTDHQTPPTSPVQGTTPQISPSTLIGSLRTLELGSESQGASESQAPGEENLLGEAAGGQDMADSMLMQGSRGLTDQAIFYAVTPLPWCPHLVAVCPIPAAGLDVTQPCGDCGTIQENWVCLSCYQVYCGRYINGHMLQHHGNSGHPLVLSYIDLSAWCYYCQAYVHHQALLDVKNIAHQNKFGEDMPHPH
Experimental: OptiPlate-96 black microplates (Perkin Elmer Inc., Waltham, MA, USA) were used with an assay volume of 50 µL. […] After an incubation time of 90 min, 50 µL of 0.4 mg/mL trypsin in trypsin buffer (50 mM Tris-HCl, pH 8.0, and 100 mM NaCl) was added, followed by further incubation at 37 °C for 30 min.

HL60 cells = assay: CellTiter-Glo cell viability assay, HL60; type: cell-based, human; details: for IC50: Homo sapiens, HL-60, AML, 72 h, CellTiter-Glo, n = 3; for Selectivity index range healthy fibroblasts vs HL60: SI = (healthy fibroblast IC50)/(leukemia cell line IC50), range over two fibroblasts
Experimental: (§1) Healthy individually-derived fibroblasts were cultured in DMEM supplemented with 10% FCS. Regular cell line authentication was performed short tandem repeat (STR) analysis (DNA fingerprinting), followed by comparison with the original DSMZ cell line database.
(§2) Cell viability assay was performed with leukemic cell lines after 72 h incubation with the respective inhibitors using ATP-based CellTiter-Glo luminescent assay (Promega, Madison, WI, USA).

HPBALL cells = assay: CellTiter-Glo cell viability assay, HPBALL; type: cell-based, human; details: for IC50: Homo sapiens, HPBALL, T-ALL, 72 h, CellTiter-Glo, n = 3; for Selectivity index range healthy fibroblasts vs HPB ALL: SI = (healthy fibroblast IC50)/(leukemia cell line IC50), range over two fibroblasts
Experimental: as §1, §2

K562 cells [1] = assay: CellTiter-Glo cell viability assay, K562; type: cell-based, human; details: for IC50: Homo sapiens, K562, CML, 72 h, CellTiter-Glo, n = 3; for Selectivity index range healthy fibroblasts vs K562: SI = (healthy fibroblast IC50)/(leukemia cell line IC50), range over two fibroblasts
Experimental: as §1, §2

Healthy Fibroblast 2 = assay: Cytotoxicity against healthy fibroblast 2; type: cell-based; details: Homo sapiens, healthy individually-derived fibroblasts
Experimental: as §1, §2

[2] = test system: five leukemia cell lines (K562, HL60, NALM6, HPBALL, MOLM13); assay: CellTiter-Glo cell viability assay, panel of five leukemia cell lines; type: cell-based, human; details: for antiproliferative activity compared to DHA: number of the five leukemia cell lines in which DHA is exceeded
Experimental: as §1, §2

K562 cells [3] = assay: Annexin V-PI staining; type: cell-based, human; details: 48 h, 0.4 µM or 0.8 µM
Experimental: To evaluate the induction of apoptosis upon respective inhibitor treatment, K562 cells were incubated (48 h) with inhibitors (0.4 µM or 0.8 µM) or with vehicle control (DMSO). The induction of apoptosis/necrosis was analyzed by measuring hypodiploid DNA content, mitochondrial potential, and exposure of phosphatidylserine after annexin/propidium iodide (PI) staining kit (BD, Franklin lakes, NJ, USA) using FACS.

Row | SMILES | IC50 (A2780 cells) [nM] | IC50 (human HDAC6 (hHDAC6)) [nM] | IC50 (HL60 cells) [nM] | IC50 (HPBALL cells) [nM] | IC50 (K562 cells [1]) [nM] | IC50 (Healthy Fibroblast 2) [nM] | antiproliferative activity compared to DHA [2] | SI 1/6 (human HDAC6 (hHDAC6)) | apoptosis induction (annexin V/PI) (K562 cells [3]) | Selectivity index range healthy fibroblasts vs HL60 (HL60 cells) | Selectivity index range healthy fibroblasts vs HPB ALL (HPBALL cells) | Selectivity index range healthy fibroblasts vs K562 (K562 cells [1]) | necrosis induction (annexin V/PI) (K562 cells [3]) | IC50 ([2]; Homo sapiens, range over K562, HL60, NALM6, HPBALL, MOLM13, read-out: IC50 values across the five leukemia cell lines) [nM] | selectivity indices (SI) fibroblasts over leukemia cells, highest ([2]; highest SI across leukemia cell lines and fibroblasts)
1 | C[C@H]1[C@@H](O)O[C@@H]2O[C@@]3(C)CC[C@H]4[C@H](C)CC[C@@H]1[C@@]24OO3 [DHA, dihydroartemisinin] | 970 ± 70 | > 10000 | 3570 ± 1040 | 9930 ± 1510 | 2400 ± 660 | > 25000 |  |  |  |  |  |  |  |  | 
2 | C[C@H]1[C@H](SCc2ccc(C(=O)NO)cc2)O[C@@H]2O[C@@]3(C)CC[C@H]4[C@H](C)CC[C@@H]1[C@@]24OO3 [(β)-7c, N-Hydroxy-4-((((3R,5aS,6R,8aS,9R,10S,12S,12aR)-3,6,9-trimethyldecahydro-12H-3,12-epoxy[1,2]dioxepino[4,3-i]isochromen-10-yl)thio)methyl)benzamide] | 880 ± 130 | 41 ± 9 | 2340 ± 460 | 12300 ± 570 | 410 ± 110 | 17800 ± 6040 | outperforming DHA in four out of five | 68 | significantly induced apoptosis as compared to DHA | 6-8 | 1.2-1.4 | 36-43 |  |  | 
3 | C[C@H]1[C@@H](SCc2ccc(C(=O)NO)cc2)O[C@@H]2O[C@@]3(C)CC[C@H]4[C@H](C)CC[C@@H]1[C@@]24OO3 [(α)-7c, N-Hydroxy-4-((((3R,5aS,6R,8aS,9R,10R,12S,12aR)-3,6,9-trimethyldecahydro-12H-3,12-epoxy[1,2]dioxepino[4,3-i]isochromen-10-yl)thio)methyl)benzamide] | 1100 ± 250 | 36 ± 8 | 1020 ± 270 | 6720 ± 440 | 620 ± 60 | 7410 ± 1400 | all five cell lines | 56 |  | 7-12 | 1.1-1.9 | 12-21 | induced significant necrosis |  | 
4 | C[C@@H]1CC[C@H]2[C@@H](C)C(OCc3ccc(/C=C/C(=O)NO)cc3)O[C@@H]3O[C@@]4(C)CC[C@@H]1[C@]32OO4 (stereo partly drawn) [Compound 7a, (E)-N-Hydroxy-3-(4-((((3R,5aS,6R,8aS,9R,12R,12aR)-3,6,9-trimethyldecahydro-12H-3,12-epoxy[1,2]dioxepino[4,3-i]isochromen-10-yl)oxy)methyl)phenyl)acrylamide] | 1950 ± 520 | 187 ± 4 | 1330 ± 140 | 1360 ± 30 | 310 ± 60 | 6340 ± 790 | all five cell lines | 3 | significantly induced apoptosis as compared to DHA | 5-10 | 5-10 | 21-42 |  | 150 to 1360 | up to 87
